ChEMBL document CHEMBL1201862, “PubChem BioAssay data set” (2004)
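48-hour exposure; five concentrations; linearly interpolated endpoints. GI50 is the concentration that inhibits growth by half.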 Active and inactive are the calls of the source. Rule as the data show it: active = GI50 up to about 1.1 µM and inactive = higher.

What was measured:
Experiment in all cases: growth of human tumour cells (NCI), 48 h
HT-29 = tested on: HT-29
A498 = tested on: A498
UACC-257 = tested on: UACC-257
SNB-75 = tested on: SNB-75
LOX IMVI = tested on: LOX IMVI
MOLT-4 = tested on: MOLT-4
NCI-H460 = tested on: NCI-H460
SF-268 = tested on: SF-268
SNB-19 = tested on: SNB-19
MCF7 = tested on: MCF7
OVCAR-4 = tested on: OVCAR-4
Malme-3M = tested on: Malme-3M
SW-620 = tested on: SW-620
K562 = tested on: K562
BT-549 = tested on: BT-549
SF-295 = tested on: SF-295
OVCAR-3 = tested on: OVCAR-3
COLO 205 = tested on: COLO 205
PC-3 = tested on: PC-3
T47D = tested on: T47D

SMILES | GI50 (HT-29) | GI50 (A498) | GI50 (UACC-257) | GI50 (SNB-75) | GI50 (LOX IMVI) | GI50 (MOLT-4) | GI50 (NCI-H460) | GI50 (SF-268) | GI50 (SNB-19) | GI50 (MCF7) | GI50 (OVCAR-4) | GI50 (Malme-3M) | GI50 (SW-620) | GI50 (K562) | GI50 (BT-549) | GI50 (SF-295) | GI50 (OVCAR-3) | GI50 (COLO 205) | GI50 (PC-3) | GI50 (T47D)
O=C(NCCc1ccccc1)c1c(O)nc2ccccc2c1O | > 100 µM (inactive) | > 100 µM (inactive) | > 100 µM (inactive) | > 100 µM (inactive) | > 100 µM (inactive) | > 100 µM (inactive) | > 100 µM (inactive) | > 100 µM (inactive) | > 100 µM (inactive) | > 100 µM (inactive) | > 100 µM (inactive) | > 100 µM (inactive) | > 100 µM (inactive) | > 100 µM (inactive) | > 100 µM (inactive) | > 100 µM (inactive) | > 100 µM (inactive) | > 100 µM (inactive) | > 100 µM (inactive) | 
O=C(/C(=N/Nc1cn[nH]c(=O)c1Cl)c1ccccc1)c1ccccc1 | 20 µM (inactive) | 14.7 µM (inactive) | 29.2 µM (inactive) | 8.79 µM (inactive) | 18.8 µM (inactive) | 23.2 µM (inactive) |  |  | 91.6 µM (inactive) | 45.8 µM (inactive) | 41.7 µM (inactive) | 52.7 µM (inactive) | 31.3 µM (inactive) | 24.5 µM (inactive) |  | 27.6 µM (inactive) | 18 µM (inactive) | 20.3 µM (inactive) | 27.5 µM (inactive) | 28.4 µM (inactive)
COc1cc(C/N=c2/nc(N(C)C)ss2)cc(OC)c1OC | > 10 µM (inactive) | > 10 µM (inactive) | > 10 µM (inactive) | > 10 µM (inactive) | 2.1 µM (inactive) | 2.81 µM (inactive) | > 10 µM (inactive) | > 10 µM (inactive) | > 10 µM (inactive) | > 5.78 µM (inactive) | > 9.27 µM (inactive) | > 5.15 µM (inactive) | 5.6 µM (inactive) | 1.46 µM (inactive) |  | > 10 µM (inactive) | > 10 µM (inactive) | > 10 µM (inactive) | > 10 µM (inactive) | > 10 µM (inactive)
COC(=O)CCc1ccc2c(c1)CC1(C2)Cc2ccc(CCC(=O)OC)cc2C1 | 62.7 µM (inactive) | > 100 µM (inactive) | > 100 µM (inactive) | < 0.01 µM (active) | 26.6 µM (inactive) | 29.6 µM (inactive) |  |  |  | 48.6 µM (inactive) | 53.3 µM (inactive) | 63.1 µM (inactive) |  | > 100 µM (inactive) |  | 78 µM (inactive) | 77.4 µM (inactive) | 57.5 µM (inactive) | > 100 µM (inactive) | 58.2 µM (inactive)
CCCCCCCCCCCC(=O)OCC1OC(n2cc(F)c(=O)[nH]c2=O)C(N)C(OC(=O)CCCCCCCCCCC)C1O (stereo unspecified) | > 100 µM (inactive) | > 100 µM (inactive) | > 100 µM (inactive) | 49.7 µM (inactive) | 88.3 µM (inactive) | 27 µM (inactive) | > 100 µM (inactive) | > 100 µM (inactive) | > 100 µM (inactive) |  | 37.3 µM (inactive) | > 100 µM (inactive) | 68.4 µM (inactive) | 30.2 µM (inactive) |  | > 100 µM (inactive) | 47.5 µM (inactive) | 68.4 µM (inactive) |  | 
O=C(CCc1nnc(S)[nH]1)Nc1ccccc1Cl | > 100 µM (inactive) | > 100 µM (inactive) | > 100 µM (inactive) | > 100 µM (inactive) | > 100 µM (inactive) | > 100 µM (inactive) | > 100 µM (inactive) | > 100 µM (inactive) | > 100 µM (inactive) |  | > 100 µM (inactive) | > 100 µM (inactive) | 18.2 µM (inactive) | > 100 µM (inactive) |  | > 100 µM (inactive) | > 100 µM (inactive) | > 100 µM (inactive) |  | 
CN(NC1=NCCO1)c1ccc2ccccc2c1 | 41.1 µM (inactive) | 44.3 µM (inactive) | 65 µM (inactive) | 17.5 µM (inactive) | 37.4 µM (inactive) | 42.2 µM (inactive) | 27.2 µM (inactive) | 47.5 µM (inactive) | 54.7 µM (inactive) | 48.6 µM (inactive) | 42 µM (inactive) | 36.2 µM (inactive) | 34.1 µM (inactive) | 28.3 µM (inactive) |  | > 100 µM (inactive) | 23.6 µM (inactive) | 41.1 µM (inactive) | 40.3 µM (inactive) | 62.5 µM (inactive)
O=c1[nH]cc(COCCCO)c(=O)[nH]1 | > 100 µM (inactive) | > 100 µM (inactive) | > 100 µM (inactive) | > 100 µM (inactive) | > 100 µM (inactive) | > 100 µM (inactive) | > 100 µM (inactive) | > 100 µM (inactive) | > 100 µM (inactive) |  | > 100 µM (inactive) | > 100 µM (inactive) | > 100 µM (inactive) | > 100 µM (inactive) |  | > 100 µM (inactive) | > 100 µM (inactive) | > 100 µM (inactive) |  | 
CN(CC(=O)O)c1ncc2c(n1)-c1ccccc1CC2 | > 100 µM (inactive) | > 100 µM (inactive) | > 100 µM (inactive) | 74.8 µM (inactive) | > 100 µM (inactive) | > 100 µM (inactive) | > 100 µM (inactive) | > 100 µM (inactive) | > 100 µM (inactive) | > 100 µM (inactive) | > 100 µM (inactive) | > 100 µM (inactive) | > 100 µM (inactive) | > 100 µM (inactive) |  | > 100 µM (inactive) | > 100 µM (inactive) | > 100 µM (inactive) | > 100 µM (inactive) | 
O=C(O)CCCCCOc1cccnc1/C=N/NC1=NCCN1 | > 100 µM (inactive) | 59.6 µM (inactive) | > 100 µM (inactive) | 20.7 µM (inactive) | > 100 µM (inactive) | > 100 µM (inactive) | > 100 µM (inactive) | > 100 µM (inactive) | > 100 µM (inactive) |  | > 100 µM (inactive) | > 100 µM (inactive) | > 100 µM (inactive) | > 100 µM (inactive) |  | > 100 µM (inactive) | > 100 µM (inactive) | > 100 µM (inactive) |  | 
O=C1Oc2ccccc2C(=O)/C1=C/N1C(=O)/C(=C/c2ccc3c(c2)OCO3)SC1=S | 21.2 µM (inactive) | 3.99 µM (inactive) | 24.3 µM (inactive) | 11.1 µM (inactive) | 33.3 µM (inactive) | 17.5 µM (inactive) | 16.8 µM (inactive) | 13.7 µM (inactive) |  | 20.7 µM (inactive) | 20.8 µM (inactive) | 19.8 µM (inactive) | 22.8 µM (inactive) | 16.6 µM (inactive) |  | 22.9 µM (inactive) | 0.405 µM (active) | 20.5 µM (inactive) | 15.8 µM (inactive) | 13.6 µM (inactive)
COC(=O)C(C(=O)c1ccccc1)C(C(=O)C(=O)Nc1ccc(OC)cc1OC)C(=O)C(=O)c1ccc(C)cc1 (stereo unspecified) | > 100 µM (inactive) | > 100 µM (inactive) | > 100 µM (inactive) | > 100 µM (inactive) | > 100 µM (inactive) | > 100 µM (inactive) | > 100 µM (inactive) | > 100 µM (inactive) | > 100 µM (inactive) |  | > 100 µM (inactive) | > 100 µM (inactive) | > 100 µM (inactive) | > 100 µM (inactive) |  | > 100 µM (inactive) | > 100 µM (inactive) | > 100 µM (inactive) |  | 
C/C(=N\NC(=O)CC#N)C(CN1CCCCC1)C(c1ccccc1)c1c(O)c2ccccc2oc1=O (stereo unspecified) | 46.8 µM (inactive) | 21.7 µM (inactive) | 37.2 µM (inactive) | 67.5 µM (inactive) | 17.4 µM (inactive) | 26.5 µM (inactive) |  | > 100 µM (inactive) | 80.4 µM (inactive) | 17.3 µM (inactive) | 52.1 µM (inactive) | 41 µM (inactive) | 91.4 µM (inactive) | 55 µM (inactive) | 54.2 µM (inactive) |  | 47.5 µM (inactive) | 18.6 µM (inactive) | 58.3 µM (inactive) | 
CC(=O)OCC1OC(OC2CC3C(C)(C)C(OC(C)=O)CC[C@]3(C)C3CCC45CC4(CC[C@H]5C(C)CC(O)[C@@H](O)C(C)(C)O)[C@]23C)C(O)C(O)C1O (stereo partly specified) | 8.05 µM (inactive) | 7 µM (inactive) | 7.53 µM (inactive) | 6.18 µM (inactive) | 6.95 µM (inactive) | 2.36 µM (inactive) | 8.95 µM (inactive) | 8.11 µM (inactive) | 7.08 µM (inactive) |  | 6.67 µM (inactive) | 7.69 µM (inactive) | 7.69 µM (inactive) | 5.55 µM (inactive) |  | 7.93 µM (inactive) | 7.19 µM (inactive) | 7.8 µM (inactive) |  | 
CN1C(=O)c2c(c3c4ccccc4n(C4OC(CO)C(O)C(O)C4O)c3c3[nH]c4ccccc4c23)C1=O (stereo unspecified) | 3.13 µM (inactive) | 1.45 µM (inactive) | 2.49 µM (inactive) | 3.95 µM (inactive) | 1.2 µM (inactive) | 0.624 µM (active) | 3.1 µM (inactive) | 0.541 µM (active) | 0.849 µM (active) | 5.51 µM (inactive) | 2.37 µM (inactive) | 0.194 µM (active) | 1.71 µM (inactive) | 0.736 µM (active) | 4.99 µM (inactive) | 3.63 µM (inactive) | 2.02 µM (inactive) | 0.944 µM (active) | 1.92 µM (inactive) | 
CSCCCNC(=O)c1csc(-c2csc(CCNC(=O)CNC(=O)CNC(=O)OC(C)(C)C)n2)n1 | > 100 µM (inactive) | > 100 µM (inactive) | > 100 µM (inactive) | 37.2 µM (inactive) | > 100 µM (inactive) | > 100 µM (inactive) | > 100 µM (inactive) | > 100 µM (inactive) | > 100 µM (inactive) | > 100 µM (inactive) | > 100 µM (inactive) | > 100 µM (inactive) | > 100 µM (inactive) | > 100 µM (inactive) | > 100 µM (inactive) | > 100 µM (inactive) | > 100 µM (inactive) | > 100 µM (inactive) | > 100 µM (inactive) | 
